Target: T1, KRas-G12D (Homo sapiens, UniProt P01116, G12D)
T1 construct: insert the HiBiT tag onto the N-terminus of one or more of the endogenous KRas alleles; host or cells: AsPC-1 HiBiT-KRasG12D knock-in clone (one tagged allele, two untagged KRasG12D alleles)
Assay: HiBiT Degradation Assay (G12D), AsPC-1 HiBiT-KRasG12D cells, 24 hr
Type: cell-based
Conditions: for Dmax: ASPC1, AsPC-1 cells, maximum degradation observed; for DC50: AsPC-1 cells
Outline: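 AsPC-1 cells with CRISPR N-terminal HiBiT knock-in on one endogenous KRasG12D allele, treated 24 hr at 37° C with compound titrations in 0.5% DMSO. Lytic HiBiT luminescence normalized to DMSO, fitted to a 4-parameter model for DC50 and Dmax. Parallel alamar blue (4 hr) checked viability.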

T1 sequence (P01116 1-188 isoform P01116-2 G12D): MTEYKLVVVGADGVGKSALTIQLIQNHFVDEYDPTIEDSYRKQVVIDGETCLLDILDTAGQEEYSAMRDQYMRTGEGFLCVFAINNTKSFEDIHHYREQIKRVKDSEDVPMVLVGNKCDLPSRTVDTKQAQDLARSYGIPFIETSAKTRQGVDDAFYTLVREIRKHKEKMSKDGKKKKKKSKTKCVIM

SMILES	Dmax [%]	DC50 [µM]
C#Cc1c(F)ccc2cc(O)cc(-c3ncc4c(N5CC6CCC(C5)N6)nc(OC[C@@H]5C[C@@H](OC6CCN(c7ccc8c(c7)CN(C7CCC(=O)NC7=O)C8=O)CC6)CN5C)nc4c3F)c12 (some centres unmarked) [Compound 104]	> 70	< 5.1
C#Cc1c(F)ccc2cc(O)cc(-c3ncc4c(N5CC6CCC(C5)N6)nc(N(C)CCN5CCC(CC6CCN(CC7CCN(c8ccc9c(c8F)CN(C8CCC(=O)NC8=O)C9=O)CC7)CC6)CC5)nc4c3F)c12 (centres unmarked) [Compound 105]	≤ 25	< 5.1
C#Cc1c(F)ccc2cc(O)cc(-c3ncc4c(N5CC6CCC(C5)N6)nc(OCCN5CCC(OC6CCN(CC7CCN(c8ccc9c(c8F)CN(C8CCC(=O)NC8=O)C9=O)CC7)CC6)CC5)nc4c3F)c12 (centres unmarked) [Compound 106, 3-{5-[4-({4-[(1-{2-[(4-{3,8-diazabicyclo[3.2.1]octan-3-yl}-7-(8-ethynyl-7-fluoro-3-hydroxynaphthalen-1-yl)-8-fluoropyrido[4,3-d]pyrimidin-2-yl)oxy]ethyl}piperidin-4-yl)oxy]piperidin-1-yl}methyl)piperidin-1-yl]-4-fluoro-1-oxo-2,3-dihydro-1H-isoindol-2-yl}piperidine-2,6-dione]	> 70	< 5.1
C#Cc1c(F)ccc2cc(O)cc(-c3cnc4c(N5CC6CCC(C5)N6)nc(OCCN5CCC(CC6CCN(CC7CCN(c8ccc9c(c8F)CN(C8CCC(=O)NC8=O)C9=O)CC7)CC6)CC5)nc4c3)c12 (centres unmarked) [Compound 107]		> 1
C#Cc1c(F)ccc2cc(O)cc(-c3ccc4c(N5CC6CCC(C5)N6)nc(OCCN5CCC(CC6CCN(CC7CCN(c8ccc9c(c8F)CN(C8CCC(=O)NC8=O)C9=O)CC7)CC6)CC5)nc4c3)c12 (centres unmarked) [Compound 108]	≤ 25	< 5.1
C#Cc1c(F)ccc2cc(O)cc(-c3ncc4c(N5CC6CCC(C5)N6)nc(OCCN5CCC(CC6CCN(CC7CCN(c8ccc9c(c8Cl)CN(C8CCC(=O)NC8=O)C9=O)CC7)CC6)CC5)nc4c3F)c12 (centres unmarked) [Compound 109, 3-(5-(4-((4-((1-(2-((4-(-3,8-diazabicyclo[3.2.1]octan-3-yl)-7-(8-ethynyl-7-fluoro-3-hydroxynaphthalen-1-yl)-8-fluoropyrido[4,3-d]pyrimidin-2-yl)oxy)ethyl)piperidin-4-yl)methyl)piperidin-1-yl)methyl)piperidin-1-yl)-4-chloro-1-oxoisoindolin-2-yl)piperidine-2,6-dione]	> 70	< 5.1
C#Cc1c(F)ccc2cc(O)cc(-c3ncc4c(N5CC6CCC(C5)N6)nc(OCCN5CCC(CC6CCN(CC7CCN(c8ccc9c(c8)C(=O)N(C8CCC(=O)NC8=O)C9)CC7)CC6)CC5)nc4c3F)c12 (centres unmarked) [Compound 110, 3-{6-[4-({4-[(1-{2-[(4-{3,8-diazabicyclo[3.2.1]octan-3-yl}-7-(8-ethynyl-7-fluoro-3-hydroxynaphthalen-1-yl)-8-fluoropyrido[4,3-d]pyrimidin-2-yl)oxy]ethyl}piperidin-4-yl)methyl]piperidin-1-yl}methyl)piperidin-1-yl]-1-oxo-2,3-dihydro-1H-isoindol-2-yl}piperidine-2,6-dione]	> 70	< 5.1
C#Cc1c(F)ccc2cc(O)cc(-c3ncc4c(N5CC6CCC(C5)N6)nc(OCCN5CCC(CN6CCN(CC7CCN(c8ccc9c(c8)CN(C8CCC(=O)NC8=O)C9=O)CC7)CC6)CC5)nc4c3F)c12 (centres unmarked) [Compound 111, 3-[5-[4-[[4-[[1-[2-[4-(3,8-diazabicyclo[3.2.1]octan-3-yl)-7-(8-ethynyl-7-fluoro-3-hydroxy-1-naphthyl)-8-fluoro-pyrido[4,3-d]pyrimidin-2-yl]oxyethyl]-4-piperidyl]methyl]piperazin-1-yl]methyl]-1-piperidyl]-1-oxo-isoindolin-2-yl]piperidine-2,6-dione]	> 70	< 5.1
C#Cc1c(F)ccc2cc(O)cc(-c3ncc4c(N5CC6CCC(C5)N6)nc(OC[C@@H]5C[C@@H](OC6CCN(CC7(F)CCN(c8ccc9c(c8F)CN(C8CCC(=O)NC8=O)C9=O)CC7)CC6)CN5C)nc4c3F)c12 (stereo partly drawn) [Compound 112, 3-(5-{4-[(4-{[(3R,5S)-5-{[(4-{3,8-diazabicyclo[3.2.1]octan-3-yl}-7-(8-ethynyl-7-fluoro-3-hydroxynaphthalen-1-yl)-8-fluoropyrido[4,3-d]pyrimidin-2-yl)oxy]methyl}-1-methylpyrrolidin-3-yl]oxy}piperidin-1-yl)methyl]-4-fluoropiperidin-1-yl}-4-fluoro-1-oxo-2,3-dihydro-1H-isoindol-2-yl)piperidine-2,6-dione]	> 70	< 5.1
C#Cc1c(F)ccc2cc(O)cc(-c3ncc4c(N5C[C@H]6CC[C@@H](C5)N6)nc(OC[C@@H]5C[C@@H](OC6CCN(CC7CCN(c8ccc9c(c8Cl)CN(C8CCC(=O)NC8=O)C9=O)CC7)CC6)CN5C)nc4c3F)c12 (stereo partly drawn) [Compound 113, 3-(5-(4-((4-(((3R,5S)-5-(((4-((1R,5S)-3,8-diazabicyclo[3.2.1]octan-3-yl)-7-(8-ethynyl-7-fluoro-3-hydroxynaphthalen-1-yl)-8-fluoropyrido[4,3-d]pyrimidin-2-yl)oxy)methyl)-1-methylpyrrolidin-3-yl)oxy)piperidin-1-yl)methyl)piperidin-1-yl)-4-chloro-1-oxoisoindolin-2-yl)piperidine-2,6-dione]	> 70	< 5.1
C#Cc1c(F)ccc2cc(O)cc(-c3ncc4c(N5CC6CCC(C5)N6)nc(OC[C@@H]5CC[C@@H](COC(=O)N6CCN(c7ccc8c(c7)CN(C7CCC(=O)NC7=O)C8=O)CC6)N5C)nc4c3F)c12 (stereo partly drawn) [Compound 114, [(2S,5S)-5-{[(4-{3,8-diazabicyclo[3.2.1]octan-3-yl}-7-(8-ethynyl-7-fluoro-3-hydroxynaphthalen-1-yl)-8-fluoropyrido[4,3-d]pyrimidin-2-yl)oxy]methyl}-1-methylpyrrolidin-2-yl]methyl 4-[2-(2,6-dioxopiperidin-3-yl)-1-oxo-2,3-dihydro-1H-isoindol-5-yl]piperazine-1-carboxylate]		< 5.1
C#Cc1c(F)ccc2cc(O)cc(-c3ncc4c(N5CC6CCC(C5)N6)nc(OC[C@@H]5C[C@@H](OC6CCN(CC7CCN(c8cccc9c8CN(C8CCC(=O)NC8=O)C9=O)CC7)CC6)CN5C)nc4c3F)c12 (stereo partly drawn) [Compound 115, 3-(4-{4-[(4-{[(3R,5S)-5-{[(4-{3,8-diazabicyclo[3.2.1]octan-3-yl}-7-(8-ethynyl-7-fluoro-3-hydroxynaphthalen-1-yl)-8-fluoropyrido[4,3-d]pyrimidin-2-yl)oxy]methyl}-1-methylpyrrolidin-3-yl]oxy}piperidin-1-yl)methyl]piperidin-1-yl}-1-oxo-2,3-dihydro-1H-isoindol-2-yl)piperidine-2,6-dione]	> 70	< 5.1
C#Cc1c(F)ccc2cc(O)cc(-c3ncc4c(N5CC6CCC(C5)N6)nc(OC[C@@H]5C[C@@H](OC6CCN(CC7CCN(c8ccc9c(c8)CN(C8CCC(=O)NC8=O)C9=O)CC7)CC6)CN5C)nc4c3F)c12 (some centres unmarked) [Compound 116]	> 70	< 5.1
C#Cc1c(F)ccc2cc(O)cc(-c3ncc4c(N5CC6CCC(C5)N6)nc(OC[C@@H]5CC[C@@H](COC(=O)N6CCN(c7cccc8c7CN(C7CCC(=O)NC7=O)C8=O)CC6)N5C)nc4c3F)c12 (stereo partly drawn) [Compound 117, [(2S,5S)-5-{[(4-{3,8-diazabicyclo[3.2.1]octan-3-yl}-7-(8-ethynyl-7-fluoro-3-hydroxynaphthalen-1-yl)-8-fluoropyrido[4,3-d]pyrimidin-2-yl)oxy]methyl}-1-methylpyrrolidin-2-yl]methyl 4-[2-(2,6-dioxopiperidin-3-yl)-1-oxo-2,3-dihydro-1H-isoindol-4-yl]piperazine-1-carboxylate]		0.25 to 1
CCc1cccc2cc(O)cc(-c3ncc4c(N5CC6CCC(C5)N6)nc(OC[C@@H]5C[C@@H](OC6CCN(c7cccc8c7CN(C7CCC(=O)NC7=O)C8=O)CC6)CN5C)nc4c3F)c12 (stereo partly drawn) [Compound 118, 3-[4-(4-{[(3R,5S)-5-{[(4-{3,8-diazabicyclo[3.2.1]octan-3-yl}-7-(8-ethyl-3-hydroxynaphthalen-1-yl)-8-fluoropyrido[4,3-d]pyrimidin-2-yl)oxy]methyl}-1-methylpyrrolidin-3-yl]oxy}piperidin-1-yl)-1-oxo-2,3-dihydro-1H-isoindol-2-yl]piperidine-2,6-dione]		> 1
C#Cc1c(F)ccc2cc(O)cc(-c3ncc4c(N5CC6CCC(C5)N6)nc(OCCN5CCC6(CC5)CN(CC5(F)CCN(c7ccc8c(c7F)CN(C7CCC(=O)NC7=O)C8=O)CC5)C6)nc4c3F)c12 (centres unmarked) [Compound 119, 3-(5-{4-[(7-{2-[(4-{3,8-diazabicyclo[3.2.1]octan-3-yl}-7-(8-ethynyl-7-fluoro-3-hydroxynaphthalen-1-yl)-8-fluoropyrido[4,3-d]pyrimidin-2-yl)oxy]ethyl}-2,7-diazaspiro[3.5]nonan-2-yl)methyl]-4-fluoropiperidin-1-yl}-4-fluoro-1-oxo-2,3-dihydro-1H-isoindol-2-yl)piperidine-2,6-dione]		< 5.1
C#Cc1c(F)ccc2cc(O)cc(-c3ncc4c(N5CC6CCC(C5)N6)nc(OCCN5CCC6(CC5)CCN(CC5(F)CCN(c7ccc8c(c7F)CN(C7CCC(=O)NC7=O)C8=O)CC5)CC6)nc4c3F)c12 (centres unmarked) [Compound 120, 3-(5-{4-[(9-{2-[(4-{3,8-diazabicyclo[3.2.1]octan-3-yl}-7-(8-ethynyl-7-fluoro-3-hydroxynaphthalen-1-yl)-8-fluoropyrido[4,3-d]pyrimidin-2-yl)oxy]ethyl}-3,9-diazaspiro[5.5]undecan-3-yl)methyl]-4-fluoropiperidin-1-yl}-4-fluoro-1-oxo-2,3-dihydro-1H-isoindol-2-yl)piperidine-2,6-dione]	> 70	< 5.1

From patent US12448399B2, “Cereblon-based KRAS degrading PROTACs and uses related thereto” (Arvinas Operations, Inc., priority 2023, dated 2025)
